≈ marks a conversion by molar mass, not a printed value.
Legend:
[1] = system: CCRF-CEM; assay: The compound was tested for its cytotoxicity against CCRF-CEM human leukemic cells using 72 hrs assay; assay type: functional, cell-based
[2] = target: T1, Trifunctional purine biosynthetic protein adenosine-3 (Mus musculus, UniProt Q64737); assay: Inhibitory activity against glycinamide ribonucleotide formyltransferase (GARFT) from L1210 murine leukemic cells; assay type: cell-based
T1 sequence (Q64737 whole entry): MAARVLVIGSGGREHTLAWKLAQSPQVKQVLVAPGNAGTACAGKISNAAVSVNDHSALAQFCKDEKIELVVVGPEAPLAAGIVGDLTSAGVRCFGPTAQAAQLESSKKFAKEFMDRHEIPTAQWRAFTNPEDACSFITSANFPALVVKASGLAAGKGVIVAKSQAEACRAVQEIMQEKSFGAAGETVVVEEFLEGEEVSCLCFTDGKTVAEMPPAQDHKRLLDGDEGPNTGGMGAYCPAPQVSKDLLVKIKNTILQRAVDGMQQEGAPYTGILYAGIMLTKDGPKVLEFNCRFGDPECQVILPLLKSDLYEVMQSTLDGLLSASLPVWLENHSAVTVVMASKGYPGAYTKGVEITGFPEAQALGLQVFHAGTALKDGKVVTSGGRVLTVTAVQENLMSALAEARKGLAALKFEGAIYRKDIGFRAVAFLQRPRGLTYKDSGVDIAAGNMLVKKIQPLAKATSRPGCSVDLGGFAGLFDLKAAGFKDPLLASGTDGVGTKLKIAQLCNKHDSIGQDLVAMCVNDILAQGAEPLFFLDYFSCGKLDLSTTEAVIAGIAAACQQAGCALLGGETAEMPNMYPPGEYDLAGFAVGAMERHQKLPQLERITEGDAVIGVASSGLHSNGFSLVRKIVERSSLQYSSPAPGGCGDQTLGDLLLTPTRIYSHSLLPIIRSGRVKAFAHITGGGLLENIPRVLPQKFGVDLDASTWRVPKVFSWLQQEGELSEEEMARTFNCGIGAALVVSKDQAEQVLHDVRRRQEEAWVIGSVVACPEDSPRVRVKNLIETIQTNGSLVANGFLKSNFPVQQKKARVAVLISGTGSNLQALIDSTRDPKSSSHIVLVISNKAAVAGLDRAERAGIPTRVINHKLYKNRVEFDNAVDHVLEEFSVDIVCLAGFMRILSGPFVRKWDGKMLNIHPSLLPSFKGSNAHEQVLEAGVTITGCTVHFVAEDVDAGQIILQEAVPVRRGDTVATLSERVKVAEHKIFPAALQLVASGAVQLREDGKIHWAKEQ

SMILES | IC50 [1] [ng/mL] | Ki [2] [nM]
Nc1nc2c(c(=O)[nH]1)C[C@@H](CCc1ccc(C(=O)N[C@@H](CCC(=O)O)C(=O)O)cc1)CN2 [LOMETREXOL] | 7 (≈ 0.0158 µM) | 120
Nc1nc(O)c2c(n1)NCC(Cc1ccc(C(=O)N[C@H](CCC(=O)O)C(=O)O)cc1)C2 (stereo not given in full) | 26 (≈ 0.0605 µM) | 0.00063
Nc1nc(O)c2c(n1)NCC(CCCc1ccc(C(=O)N[C@H](CCC(=O)O)C(=O)O)cc1)C2 (stereo not given in full) | 8 (≈ 0.0175 µM) | –

Reference: ChEMBL document CHEMBL1126409, “Synthesis and biological activity of nor- and homo-5,10-dideazatetrahydrofolic acid” (Bioorg Med Chem Lett, 1992)
